Test results: patent publication US9884040B2, “Desethylamiodarone for use in cancer treatment” (PÉCSI TUDOMÁNYEGYETEM, priority 2015, dated 2018)

Key:
[1] = tested on: A549 human lung adenocarcinoma epithelial cell line; assay: Radiotherapy plus DEA, colony formation, A549; format: cell-based; details: 1Gy or 2Gy single dose alone or with 500 nM-3 μM DEA
Protocol: (§1) Cells were trypsinized and plated in triplicate into 6-well plates at 500 cells/well. Cells were treated with different concentration of DEA and irradiated with a dose of 1.0 and 2.0 Grays. A telecobalt (Therathron 780 C) external irradiation equipment (average photon energy of 1.25 MeV) will be applied for irradiating cells. After 7 days of incubation, cells were washed and stained with Coomassie-blue, and the colonies containing more than 50 cells were counted. The number of colonies were determined and normalized to the number of colonies in controls.
(§2) To examine the effects of a DEA on the effectiveness of radiotherapy the cells were treated with 1Gy or 2Gy single dose irradiation alone or combined with 500 nM-3 μM DEA.
The cells were treated with 1Gy or 2Gy single dose irradiation alone or combined with 500 nM-3 μM DEA. Untreated cells served as controls. The results are mean±SEM of 3 independent experiments performed in at least quadruplicate. p<0.05 compared to the corresponding control group.

[2] = tested on: MCF 7 breast cancer cell line; assay: MTT cell viability assay, MCF 7; format: cell-based; details: increasing concentrations, 24, 48 and 72 hours
Protocol: The cells were seeded into 96-well plates at a starting density of 10^4 cells per well and cultured overnight before DEA was added to the medium for 24 h and 48 h. The medium was changed to a fresh one containing 0.5% of 3-[4,5-dimethylthiazol-2-yl]-2,5-diphenyl-tetrazolium bromide (MTT+) for an additional 3 hours, then the MTT+ reaction was terminated by adding HCl to 10 mM final concentration. The amount of blue formazan dye formed from MTT+ was proportional to the number of live cells, and was determined with an Anthos Labtech 2010 ELISA reader at 550 nm. All experiments were run in at least 4 replicates and repeated 3 times.
MCF 7 cells were exposed to increasing concentrations of DEA for 24, 48 and 72 hours. Viability of the cells was detected by the MTT method. Untreated cells served as controls.

BMI1 = assay: Western blot of BMI1 expression in T24 cells; format: cell-based, human; details: T24 cells, 5, 10 and 15 μM, 24 h
Protocol: (§3) 10^6 cells were seeded into regular plates and treated as for the cell viability assay. Cells were harvested at intervals in a chilled lysis buffer containing 0.5 mM sodium-metavanadate, 1 mM ethylenediaminetetraacetic acid (EDTA) and protease inhibitor cocktail in phosphate-buffered saline (PBS). Probes were boiled and subjected to 10% sodium dodecyl sulphate polyacrylamide gel electrophoresis then transferred to nitrocellulose membranes. The membranes were blocked in 5% low fat milk for 1.5 h at room temperature then exposed to primary antibodies at 4° C. overnight in blocking solution. Appropriate horseradish peroxidase-conjugated secondary antibodies were used at a 1:5000 dilution (anti-mouse and anti-rabbit IgGs; Sigma-Aldrich, Steinheim, Germany) and visualized by enhanced chemiluminescence (Amersham Biosciences, Piscataway, N.J., USA). All experiments were repeated 3 times.
T24 cells were exposed to 5, 10 and 15 μM of DEA for 24 h intervals. Equal amounts of lysate protein were subjected to gel electrophoresis. GAPDH was used as loading control. Results are presented as representative immunoblots (top panel) and densitometric analysis of Western blots in bar diagrams (bottom graph). Data are expressed as the mean±1 SD, n=3 and presented as fold difference from control (medium). Significant difference from control: *p<0.05.

[3] = tested on: HeLa human cervix adenocarcinoma cell line; assay: Radiotherapy plus DEA, colony formation, HeLa; format: cell-based; details: 1Gy or 2Gy single dose alone or with 500 nM-3 μM DEA
Protocol: as §1, §2
The cells were treated with 1Gy or 2Gy single dose irradiation alone or combined with 500 nM-3 μM DEA. Untreated cells served as controls. The results are mean±SEM of 3 independent experiments performed in at least quadruplicate. p<0.05, compared to the corresponding control group.

[4] = tested on: B16F10 (mice melanoma) cells; assay: MTT cell viability assay, B16F10; format: cell-based; details: 24 h and 48 h; 2.5, 5, 7.5 or 10 μM; vs untreated control
Protocol: The cells were seeded into 96-well plates at a starting density of 10^4 cells per well and cultured overnight before DEA was added to the medium for 24 h and 48 h. […] The amount of blue formazan dye formed from MTT+ was proportional to the number of live cells, and was determined with an Anthos Labtech 2010 ELISA reader at 550 nm. All experiments were run in at least 4 replicates and repeated 3 times. The effect of desethylamiodarone was measured in T24 (human urinary bladder carcinoma), A549 (human lung adenocarcinoma epithelial), B16F10 (mice melanoma), HeLa (human cervix adenocarcinoma), 4T1 (mouse mammary carcinoma) cell lines. Cells were treated with increasing concentrations of desethylamiodarone for 24 and 48 h. Cell growth was assessed by measuring metabolic activity, which reflects viability in the MTT-test in the course of 24 h, 48 h of continued exposure to desethylamiorarone. The untreated cells served as negative controls. The viability of the cells, was lower in all DEA-treated than in the control group, with the difference being statistically significant. […] B16F10 cells were incubated with the indicated concentrations (2.5, 5, 7.5 or 10 μM) of desethylamiodarone for 24 h (A) and 48 h (B) and cell viability was measured by MTT assay (filled bars). Untreated cells served as controls. […]

[5] = tested on: A549 human lung adenocarcinoma epithelial cell line; assay: Colony formation assay, A549; format: cell-based; details: one week; 1, 1.5, 2, 2.5 or 3 μM
Protocol: Cells were trypsinized and plated in triplicate into 6-well plates at 500 cells/well. Cells were treated with different concentration of Dea. After 7 days of incubation, cells were washed and stained with Coomassie-blue, and the colonies containing more than 50 cells were counted. The number of colonies were determined and normalized to the number of colonies in controls. To assess the recovery ability of cells that survived treatment, long-term (7 days) colony formation assay was performed. […] A549 cells were incubated with the indicated concentrations of desethylamiodarone (1, 1.5, 2, 2.5 or 3 μM for one week and cell colonies were fixed, stained and counted. (A-B) Data are expressed as the mean±SD of ≧3 experiments; a p<0.01 is considered statistically significant.

AKT (protein kinase B) = assay: Western blot of Akt phosphorylation; format: cell-based, human; details: 5-10-15 μM, 6 hours; T24, B16F10 cell lines
Protocol: as §3
To determine the downstream consequences of DEA treatment, we examined the phosphorylation status of AKT (protein kinase B), GSK-3β and p42/44 mitogen-activated protein kinase (MAPK) (ERK1/2) by immunoblotting in T24 (human urinary bladder carcinoma), B16F10 (mice melanoma) cell lines. Cells were cultured in the presence of 5-10-15 μM DEA for 6 hours. The cells were prepared and western blot analysis was carried out to perform both phosphorylated and non-phosphorylated forms of the previously listed proteins. […]

CCCCc1oc2ccccc2c1C(=O)c1cc(I)c(OCCNCC)c(I)c1 [DEA, (2-butyl-3-benzofuranyl)[4-[2-(ethylamino)ethoxy]-3,5-diiodophenyl]-methanone]
Radiosensitization, colony formation, A549 [1]: sensitize lung cancer to irradiation | Viability of MCF 7 cells (MTT) [2]: induces cell death | BMI1 expression (BMI1): significantly suppresses BMI1 expression | Radiosensitization, colony formation, HeLa [3]: sensitize cervix cancer to irradiation | Viability of B16F10 cells (MTT) [4]: Significantly different from control group at p<0.01 | Colony formation, A549 [5]: significant decrease in the number and the size of colonies | Akt (Ser473) phosphorylation (AKT (protein kinase B)): repressed Akt (Ser473) phosphorylation in a concentration-dependent manner
